Reference: publication PMC9959130, “Effects of Side Chain and Peptide Bond Modifications on the Targeting Properties of Stabilized Minigastrin Analogs” (Pharmaceuticals, 2023)
Where a SMILES comes first, the peptide text is derived from it. [ ]: non-standard residue; d: D form. The star is where a group is joined. DOTA = O=C(O)CN1CCN(CC(=O)O)CCN(CC(=O)*)CCN(CC(=O)O)CC1; 1Nal = N[C@@H](Cc1cccc2ccccc12)C(=O)O; NMeNle = CCCC[C@H](NC)C(=O)O

Experiments:
[1] = system: A431-CCK2R and A431-mock xenografts; assay: Biodistribution in BALB/c nude mice bearing A431-CCK2R/A431-mock xenografts; format: in vivo; conditions: xenografted BALB/c nude mice, i.v., ~20 pmol, 4 h p.i. (indium-111 or lutetium-177), mean ± SD n = 4
In short: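 Female athymic BALB/c nude mice carrying subcutaneous A431-CCK2R and A431-mock tumors (~0.25 g) received ~20 pmol radiopeptide i.v. (150–200 kBq; ~0.5 MBq for gallium-68/lutetium-177 studies), n = 4. Tissues γ-counted at 1 h (gallium-68) or 4 h p.i. (indium-111/lutetium-177); expressed as % IA/g and tumor-to-organ ratios.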

[2] = Metabolic studies in BALB/c mice (intact radiopeptide by radio-HPLC); format: in vivo; conditions: i.v., 2 nmol, 10 min p.i., two animals per peptide
Description: All animal experiments were approved by the Austrian Ministry of Science (BMWF-66.011/0075- WF/V/3b/2016) and performed in accordance with the Austrian Animal Protection Act. Metabolic studies characterizing the stability of selected radioligands against enzymatic degradation were carried out in 7 to 8 week old female BALB/c mice (Charles River, Sulzfeld, Germany). The mice (two animals for each peptide) were intravenously injected into a lateral tail vein with 5–10 MBq of the ^111In-labeled peptide derivatives, corresponding to 2 nmol total peptide. At the time point of 10 min p.i. the animals were euthanatized by cervical dislocation. A sample of urine and blood was immediately collected. Liver and kidneys were dissected, mixed with 20 mM HEPES buffer pH 7.3 (1:1, w/v) and homogenized using an Ultra-Turrax T8 homogenizer (IKA-Werke, Staufen, Germany) for 1 min. All samples taken were analyzed by analytical HPLC using the low-sensitivity loop for urine and the high-sensitivity loop for blood, liver and kidney. Before injection into the HPLC system, all samples except urine were treated with ACN and diluted with water as described for stability studies in human serum. The percentage of intact radiopeptide in the analyzed samples was calculated by integration of the different peaks found in the radiochromatogram using Chromeleon Dionex Software (Version 7.2.9.11323).

CCCC[C@@H](C(=O)N[C@@H](CC(=O)O)C(=O)N[C@@H](Cc1cccc2ccccc12)C(N)=O)N(C)C(=O)[C@H](Cc1c[nH]c2ccccc12)NC(=O)CNC(=O)[C@H](Cc1ccc(O)cc1)NC(=O)[C@H](C)NC(=O)[C@@H](CCCCN)NC(=O)CN1CCN(CC(=O)O)CCN(CC(=O)O)CCN(CC(=O)O)CC1 [[^111In]In-DOTA-[DLys^1]MGS5] [metal not drawn] ({DOTA}-[dK]AYGW[NMeNle]D[1Nal]-NH2)
Uptake in kidneys [1]: 20.67 ± 4.37 %IA/g | Intact radiopeptide in kidney ([2]; kidney homogenate): 20.6 ± 3.8% | Intact radiopeptide in liver ([2]; liver homogenate): 82.5 ± 2.4% | Intact radiopeptide in blood [2]: 93.9 ± 1.2% | Intact radiopeptide in urine [2]: 5.8 ± 0.2%
